Laboratory results from paper PMC11915509, “Small molecule inhibitors of hnRNPA2B1–RNA interactions reveal a predictable sorting of RNA subsets into extracellular vesicles” (Nucleic Acids Research, 2025).

How the values were obtained:
GST-hnRNPA2B1 = biological target: T1, GST-hnRNPA2B1 (Homo sapiens, UniProt P22626); test: AlphaScreen binding kinetics with EXOmotif probe; conditions: 30 nM GST-hnRNPA2B1, time frame of 2 h
T1 construct: purified a human full-length, GST-tagged protein expressed in Escherichia coli cells; made in house; host or cells: E. coli BL21 (DE3)
Procedure: AlphaScreen assay was used to study the interaction between hnRNA2B1 and different biotinylated single-stranded RNA probes: EXO RNA (5′-BTeg- […]), RNA 114 (5′- BTeg-[…]), and RNA 276 (5′-B-Teg- […]). The assays were performed in OptiPlate-384-well plates (PerkinElmer, 6007299) in 20 μl final volume. The ligands were diluted in AlphaBuffer [25 mM HEPES, pH 7.4, 100 mM NaCl, 0.01% bovine serum albumin (BSA)] and tested using AlphaScreen GST Detection Kit (PerkinElmer, 6760603C). For the assay optimization, different concentrations of the RNA probes (0–100 nM) were incubated with different concentrations of GST-hnRNPA2B1 (0–60 nM) in the presence of streptavidin Donor beads and anti-GST-Acceptor beads (PerkinElmer) (20 μg/ml final concentration). […]
Figure 2. […] Dissociation constants (Kd) were determined from nonlinear regression one-site binding model in GraphPad Prism®, version 9.0. […] Association (Kon) and dissociation (Koff) rate constants and equilibrium dissociation constants (koff/kon) were determined using nonlinear regression association kinetic model of multiple ligand concentration in GraphPad Prism®, version 9.0. […] Densitometric quantification of protein fractions were normalized to the input. […] (G) Distribution of positive (EXOmotif) and negative (ARE) protein–RNA probe interactions calculated in the primary drug screening. […]

hnRNPA2B1 isoform = test system: hnRNPA2B1 isoform; parameters: method as in PMID 29379020; conditions: hnRNPA2B1 isoform ref 45; read-out: observed Kd; cited from earlier work

T1 sequence (P22626 whole entry): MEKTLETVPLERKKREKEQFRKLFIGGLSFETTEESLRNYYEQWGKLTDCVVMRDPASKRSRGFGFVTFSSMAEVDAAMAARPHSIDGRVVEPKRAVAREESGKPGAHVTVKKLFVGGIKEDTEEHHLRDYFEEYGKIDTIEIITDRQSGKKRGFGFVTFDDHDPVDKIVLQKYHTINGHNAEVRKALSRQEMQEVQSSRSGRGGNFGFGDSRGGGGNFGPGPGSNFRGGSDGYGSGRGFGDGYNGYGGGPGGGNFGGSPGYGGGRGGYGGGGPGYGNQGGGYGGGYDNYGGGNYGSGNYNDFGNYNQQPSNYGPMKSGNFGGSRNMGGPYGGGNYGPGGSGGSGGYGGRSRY

Substance	association rate constant kon (GST-hnRNPA2B1)	Kd (hnRNPA2B1 isoform) [nM]
EXOmotif: single-stranded RNA oligo 5′-GGGGAGGUUAGGGAGGAGGGGGGUAGGCGCC (RNA, backbone not given here)	523 664 M^−1min^−1	
RNA 114: RNA oligo 5′-AAGGACUAGC		114
